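The compound was tested at five concentrations on cells cultured in 96-well plates, with a 48-hour exposure period. GI50 marks 50% less growth. TGI is the concentration that stops growth completely.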
How the values were obtained:
Experiment in all cases: NCI-60 cell line screen, 48 h
[1] = tested on: 786-0 renal
[2] = tested on: A498 renal
[3] = tested on: A549 NSCLC
[4] = tested on: ACHN renal
[5] = tested on: BT-549 breast
[6] = tested on: CAKI-1 renal
[7] = tested on: CCRF-CEM leukemia
[8] = tested on: COLO 205 colon
[9] = tested on: DU-145 prostate
[10] = tested on: EKVX NSCLC
[11] = tested on: HCC-2998 colon
[12] = tested on: HCT-116 colon
[13] = tested on: HCT-15 colon
[14] = tested on: HL-60(TB) leukemia
[15] = tested on: HOP-62 NSCLC
[16] = tested on: HOP-92 NSCLC
[17] = tested on: HS 578T breast
[18] = tested on: HT29 colon
[19] = tested on: K-562 leukemia
[20] = tested on: KM12 colon
[21] = tested on: LOX IMVI melanoma
[22] = tested on: M14 melanoma
[23] = tested on: MALME-3M melanoma
[24] = tested on: MCF7 breast
[25] = tested on: MDA-MB-231 breast
[26] = tested on: MDA-MB-435
[27] = tested on: MOLT-4 leukemia
[28] = tested on: NCI-H226 lung
[29] = tested on: NCI-H23 lung
[30] = tested on: NCI-H460 lung
[31] = tested on: NCI-H522 lung
[32] = tested on: NCI/ADR-RES ovarian
[33] = tested on: OVCAR-3 ovarian
[34] = tested on: OVCAR-4 ovarian
[35] = tested on: OVCAR-5 ovarian
[36] = tested on: OVCAR-8 ovarian
[37] = tested on: PC-3 prostate
[38] = tested on: RPMI-8226 leukemia
[39] = tested on: RXF 393 renal
[40] = tested on: SF-268 CNS
[41] = tested on: SF-295 CNS
[42] = tested on: SF-539 CNS
[43] = tested on: SK-MEL-2 melanoma
[44] = tested on: SK-MEL-28 melanoma
[45] = tested on: SK-MEL-5 melanoma
[46] = tested on: SK-OV-3 ovarian
[47] = tested on: SN12C renal
[48] = tested on: SNB-19 CNS
[49] = tested on: SNB-75 CNS
[50] = tested on: SW-620 colon
[51] = tested on: T-47D breast
[52] = tested on: TK-10 renal
[53] = tested on: U251 CNS
[54] = tested on: UACC-257 melanoma
[55] = tested on: UACC-62 melanoma
[56] = tested on: UO-31 renal
[57] = tested on: IGROV1 ovarian
[58] = tested on: SR leukemia

COc1ccc(-c2nn3c(-c4cc(F)c(Cl)cc4Cl)nnc3s2)cc1
GI50 [1]: 33.4 µM
TGI [1]: > 100 µM
GI50 [2]: 43.4 µM
TGI [2]: > 100 µM
GI50 [3]: 39.1 µM
TGI [3]: > 100 µM
GI50 [4]: 37.8 µM
TGI [4]: > 100 µM
GI50 [5]: 24.4 µM
TGI [5]: 69.7 µM
GI50 [6]: 37.9 µM
TGI [6]: > 100 µM
GI50 [7]: 28.8 µM
TGI [7]: > 100 µM
GI50 [8]: 16.5 µM
TGI [8]: 36.8 µM
GI50 [9]: 29.1 µM
TGI [9]: 83 µM
GI50 [10]: 34.1 µM
TGI [10]: > 100 µM
GI50 [11]: 20.7 µM
TGI [11]: 48.7 µM
GI50 [12]: 20.8 µM
TGI [12]: 52.9 µM
GI50 [13]: 18.1 µM
TGI [13]: > 100 µM
GI50 [14]: 15.6 µM
TGI [14]: 43.9 µM
GI50 [15]: 26.2 µM
TGI [15]: > 100 µM
GI50 [16]: 24.2 µM
TGI [16]: 77.9 µM
GI50 [17]: 43.3 µM
TGI [17]: > 100 µM
GI50 [18]: 18.5 µM
TGI [18]: 44.3 µM
GI50 [19]: 5.13 µM
TGI [19]: 44.7 µM
GI50 [20]: 26.3 µM
TGI [20]: > 100 µM
GI50 [21]: 26.4 µM
TGI [21]: > 100 µM
GI50 [22]: 25.6 µM
TGI [22]: 95.9 µM
GI50 [23]: 26.8 µM
TGI [23]: > 100 µM
GI50 [24]: 11.4 µM
TGI [24]: > 100 µM
GI50 [25]: 27.7 µM
TGI [25]: > 100 µM
GI50 [26]: 4.86 µM
TGI [26]: > 100 µM
GI50 [27]: 26.5 µM
TGI [27]: 80.7 µM
GI50 [28]: 47.9 µM
TGI [28]: > 100 µM
GI50 [29]: 29.9 µM
TGI [29]: > 100 µM
GI50 [30]: 22.4 µM
TGI [30]: 86.5 µM
GI50 [31]: 17 µM
TGI [31]: 73.1 µM
GI50 [32]: 21.2 µM
TGI [32]: 99.7 µM
GI50 [33]: 20.4 µM
TGI [33]: 66.7 µM
GI50 [34]: 23.5 µM
TGI [34]: 87.4 µM
GI50 [35]: 25.5 µM
TGI [35]: 88.9 µM
GI50 [36]: 22 µM
TGI [36]: 62.1 µM
GI50 [37]: 34.1 µM
TGI [37]: > 100 µM
GI50 [38]: 19.6 µM
TGI [38]: 52.7 µM
GI50 [39]: 28.7 µM
TGI [39]: 97.2 µM
GI50 [40]: 19.7 µM
TGI [40]: > 100 µM
GI50 [41]: 16.2 µM
TGI [41]: 65.3 µM
GI50 [42]: 20.8 µM
TGI [42]: 44.4 µM
GI50 [43]: 25.4 µM
TGI [43]: 60.1 µM
GI50 [44]: 25.8 µM
TGI [44]: > 100 µM
GI50 [45]: 17.6 µM
TGI [45]: 44.7 µM
GI50 [46]: 21.4 µM
TGI [46]: > 100 µM
GI50 [47]: 43.4 µM
TGI [47]: > 100 µM
GI50 [48]: 39.4 µM
TGI [48]: > 100 µM
GI50 [49]: 17.2 µM
TGI [49]: 51.5 µM
GI50 [50]: 24.6 µM
TGI [50]: > 100 µM
GI50 [51]: 27.5 µM
TGI [51]: > 100 µM
GI50 [52]: 56.5 µM
TGI [52]: > 100 µM
GI50 [53]: 24.6 µM
TGI [53]: 74.5 µM
GI50 [54]: 32.2 µM
TGI [54]: > 100 µM
GI50 [55]: 21.8 µM
TGI [55]: > 100 µM
GI50 [56]: 18.3 µM
TGI [56]: > 100 µM

C=CCNc1nc(C#N)c(N)s1
TGI [1]: > 10 µM
TGI [3]: > 10 µM
TGI [4]: > 10 µM
TGI [6]: > 10 µM
TGI [7]: > 10 µM
TGI [8]: > 10 µM
TGI [14]: > 10 µM
TGI [15]: > 10 µM
TGI [16]: > 10 µM
TGI [57]: > 10 µM
TGI [19]: > 10 µM
TGI [22]: > 10 µM
TGI [23]: > 10 µM
TGI [24]: > 10 µM
TGI [26]: > 10 µM
TGI [27]: > 10 µM
TGI [29]: > 10 µM
TGI [30]: > 10 µM
TGI [32]: > 10 µM
TGI [34]: > 10 µM
TGI [35]: > 10 µM
TGI [38]: > 10 µM
TGI [39]: > 10 µM
TGI [40]: > 10 µM
TGI [43]: > 10 µM
TGI [44]: > 10 µM
TGI [45]: > 10 µM
TGI [46]: > 10 µM
TGI [49]: > 10 µM
TGI [58]: > 10 µM
TGI [50]: > 10 µM
TGI [51]: > 10 µM
TGI [53]: > 10 µM
TGI [55]: > 10 µM

N#Cc1cccc(CSc2ncnc3nc[nH]c23)c1
GI50 [7]: 61.8 µM
GI50 [9]: 73.6 µM
GI50 [16]: 16.5 µM
TGI [16]: 97.5 µM
GI50 [17]: 64.2 µM
GI50 [19]: 38.2 µM
GI50 [26]: 89.8 µM
GI50 [27]: 85.2 µM
GI50 [30]: 74 µM
GI50 [32]: 27.6 µM
TGI [32]: 80.8 µM
GI50 [38]: 40.4 µM
GI50 [39]: 32.8 µM
GI50 [45]: 89.5 µM
GI50 [47]: 91 µM
GI50 [49]: 23.7 µM
TGI [49]: 87.7 µM
GI50 [58]: 38.9 µM
GI50 [51]: 56 µM
GI50 [52]: 99.2 µM
GI50 [55]: 75.7 µM
GI50 [56]: 71.9 µM

From PubChem BioAssay (NCI)
